Laboratory results published in patent publication US12187773B2, “Modified GIP peptide analogues” (Antag Therapeutics ApS, priority 2018, dated 2025).
Where a SMILES comes first, the peptide text is derived from it. The star is where a group is joined. C16 diacid = O=C(O)CCCCCCCCCCCCCCC(=O)*

How the values were obtained:
[1] = biological target: T1, human GIP receptor (Homo sapiens, UniProt P48546); assay: cAMP agonism (CisBio cAMP Dynamic 2 HTRF assay); type: cell-based
T1 sequence (P48546 22-466): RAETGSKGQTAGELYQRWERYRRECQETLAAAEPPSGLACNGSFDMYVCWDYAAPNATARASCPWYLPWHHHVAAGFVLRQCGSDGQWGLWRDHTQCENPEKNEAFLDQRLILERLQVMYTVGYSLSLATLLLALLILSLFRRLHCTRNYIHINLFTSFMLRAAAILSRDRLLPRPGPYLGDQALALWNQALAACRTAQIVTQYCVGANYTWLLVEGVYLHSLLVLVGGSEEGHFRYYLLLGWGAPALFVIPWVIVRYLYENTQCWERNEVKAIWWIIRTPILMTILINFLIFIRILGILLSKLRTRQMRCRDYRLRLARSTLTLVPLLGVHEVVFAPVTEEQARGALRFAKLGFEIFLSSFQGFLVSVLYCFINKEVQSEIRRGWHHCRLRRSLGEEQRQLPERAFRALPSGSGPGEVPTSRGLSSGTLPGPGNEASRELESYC
Protocol: To test for agonistic properties at the GIP receptor, compounds were diluted and added to cells as described above and incubated for 30 min at 37° C. The resulting increase in intracellular cAMP was determined using the CisBio cAMP Dynamic 2 HTRF Assay Kit as described above.

[2] = biological target: T1, human GIP receptor; assay: cAMP accumulation, agonism (DiscoveRx HitHunter cAMP XS assay); type: cell-based; design: host or cells: COS-7 (transient, calcium phosphate; pCMV-Script vector)
Protocol: Transient transfected COS-7 cells expressing the human GIP receptor were seeded in white 96-well plates with a density of 3.5*10^4/well. The day after, the cells were washed twice with Hepes buffered saline (HBS) buffer and incubated with HBS and 1 mM 3-isobutyl-1-methylxanthine (IBMX) for 30 min at 37° C. To test for agonistic properties, ligands were added and incubated for 30 min at 37° C. In order to test for antagonistic properties, the cells were preincubated with the antagonists for 10 min prior to the addition of the agonist and subsequent incubated for 20 additional min. The HitHunter™ cAMP XS assay (DiscoveRx) was carried out according to the manufacturer's instructions.
In order to develop a GIP receptor antagonist with improved antagonistic properties, individual amino acid substitutions were conducted on GIP(3-30)NH2 and in particular at positions: 16, 18, 30 or 3, 16, 18, 30. The obtained peptides were lipidated at position 18 directly or via a linker. Both the agonistic and antagonistic profiles of the compounds were tested in cAMP accumulation experiments done in transiently transfected COS-7 cells expressing the human GIP receptor. To investigate if these mutated analogues still retained their antagonistic properties, their ability to inhibit a GIP-mediated cAMP response corresponding to 50-80% of maximum activation was examined.

[3] = HEK293, read-out: cAMP agonism, % Efficacy, Table 1C, HEK-293 cells
[4] = COS-7, read-out: cAMP agonism, Emax
[5] = HEK293, Table 1C, HEK-293 cells, read-out: cAMP agonism, % Efficacy
[6] = Table 1B, DiscoveRx, COS-7 cells, read-out: cAMP agonism, Emax

Emax [1, 5]	Emax [2, 6]	SMILES	Emax [1, 3]	Emax [2, 4]	cAMP agonism, Emax ([2]; Table 1B, DiscoveRx, COS-7 cells)
–	–	CC[C@H](C)[C@H](NC(=O)[C@H](CO)NC(=O)[C@H](Cc1ccc(O)cc1)NC(=O)[C@H](CC(=O)O)NC(=O)[C@H](CO)NC(=O)[C@@H](NC(=O)[C@H](Cc1ccccc1)NC(=O)[C@@H](N)[C@@H](C)O)[C@@H](C)CC)C(=O)N[C@@H](C)C(=O)N[C@@H](CC(C)C)C(=O)N[C@@H](CC(=O)O)C(=O)N[C@@H](CCCNC(=N)N)C(=O)N[C@H](C(=O)N[C@@H](CCCCNC(=O)CC[C@H](NC(=O)COCCOCCNC(=O)CCCCCCCCCCCCCCC(=O)O)C(=O)O)C(=O)N[C@@H](CCC(N)=O)C(=O)N[C@@H](CCC(N)=O)C(=O)N[C@@H](CC(=O)O)C(=O)N[C@@H](Cc1ccccc1)C(=O)N[C@H](C(=O)N[C@@H](CC(N)=O)C(=O)N[C@@H](Cc1c[nH]c2ccccc12)C(=O)N[C@@H](CC(C)C)C(=O)N[C@@H](CC(C)C)C(=O)N[C@@H](C)C(=O)N[C@@H](CCC(N)=O)C(=O)N[C@@H](CCCNC(=N)N)C(N)=O)C(C)C)[C@@H](C)CC [AT234] (HELM PEPTIDE1{T.F.I.S.D.Y.S.I.A.L.D.R.I.K.Q.Q.D.F.V.N.W.L.L.A.Q.R.[am]}|PEPTIDE2{[O=C(O)CCCCCCCCCCCCCCC(=O)[*:2]].[O=C(COCCOCCN[*:1])[*:2]].[gGlu]}$PEPTIDE1,PEPTIDE2,14:R3-3:R2$$$V2.0; N-terminus assumed)	0%	26%	–
0%	10%	CC[C@H](C)[C@H](NC(=O)[C@H](CO)NC(=O)[C@H](Cc1ccc(O)cc1)NC(=O)[C@H](CCC(=O)O)NC(=O)[C@H](CO)NC(=O)[C@@H](NC(=O)[C@H](Cc1ccccc1)NC(=O)[C@@H](NC(=O)CNC(=O)[C@@H](N)CCC(=O)O)[C@@H](C)O)[C@@H](C)CC)C(=O)N[C@@H](C)C(=O)N[C@@H](CCSC)C(=O)N[C@@H](CCC(=O)O)C(=O)N[C@@H](CCCCN)C(=O)N[C@H](C(=O)N[C@@H](CCCCNC(=O)CCCCCCCCCCCCCCC(=O)O)C(=O)N[C@@H](CCC(N)=O)C(=O)N[C@@H](CCC(N)=O)C(=O)N[C@@H](CCC(=O)O)C(=O)N[C@@H](Cc1ccccc1)C(=O)N[C@H](C(=O)N[C@@H](CCC(N)=O)C(=O)N[C@@H](Cc1c[nH]c2ccccc12)C(=O)N[C@@H](CC(C)C)C(=O)N[C@@H](CC(C)C)C(=O)N[C@@H](C)C(=O)N[C@@H](CCC(N)=O)C(=O)N[C@@H](CCCCN)C(N)=O)C(C)C)[C@@H](C)CC [AT482] (H-EGTFISEYSIAMEKIK(C16 diacid)QQEFVQWLLAQK-NH2; N-terminus assumed)	–	–	–
–	–	CC[C@H](C)[C@H](NC(=O)[C@H](CO)NC(=O)[C@H](Cc1ccc(O)cc1)NC(=O)[C@H](CC(=O)O)NC(=O)[C@H](CO)NC(=O)[C@@H](NC(=O)[C@H](Cc1ccccc1)NC(=O)[C@@H](NC(=O)CNC(=O)[C@@H](N)CCC(=O)O)[C@@H](C)O)[C@@H](C)CC)C(=O)N[C@@H](C)C(=O)N[C@@H](CCSC)C(=O)N[C@@H](CC(=O)O)C(=O)N[C@@H](CCCCN)C(=O)N[C@H](C(=O)N[C@@H](CCCCNC(=O)CCCCCCCCCCCCCCC(=O)O)C(=O)N[C@@H](CCC(N)=O)C(=O)N[C@@H](CCC(N)=O)C(=O)N[C@@H](CC(=O)O)C(=O)N[C@@H](Cc1ccccc1)C(=O)N[C@H](C(=O)N[C@@H](CC(N)=O)C(=O)N[C@@H](Cc1c[nH]c2ccccc12)C(=O)N[C@@H](CC(C)C)C(=O)N[C@@H](CC(C)C)C(=O)N[C@@H](C)C(=O)N[C@@H](CCC(N)=O)C(=O)N[C@@H](CCC(=O)O)C(N)=O)C(C)C)[C@@H](C)CC [AT477] (H-EGTFISDYSIAMDKIK(C16 diacid)QQDFVNWLLAQE-NH2; N-terminus assumed)	0%	–	No Agonism
0%	8%	CC[C@H](C)[C@H](NC(=O)[C@H](Cc1ccccc1)NC(=O)[C@H](C)NC(=O)CNC(=O)[C@@H](N)CCC(=O)O)C(=O)N[C@@H](CO)C(=O)N[C@@H](CC(=O)O)C(=O)N[C@@H](Cc1ccc(O)cc1)C(=O)N[C@@H](C)C(=O)N[C@@H](C)C(=O)N[C@@H](C)C(=O)N[C@@H](CCSC)C(=O)N[C@@H](CC(=O)O)C(=O)N[C@@H](CCCCN)C(=O)N[C@H](C(=O)N[C@@H](CCCCNC(=O)CCCCCCCCCCCCCCC(=O)O)C(=O)N[C@@H](CCC(N)=O)C(=O)N[C@@H](CCC(N)=O)C(=O)N[C@@H](CC(=O)O)C(=O)N[C@@H](Cc1ccccc1)C(=O)N[C@H](C(=O)N[C@@H](C)C(=O)N[C@@H](Cc1c[nH]c2ccccc12)C(=O)N[C@@H](CC(C)C)C(=O)N[C@@H](CC(C)C)C(=O)N[C@@H](C)C(=O)N[C@@H](CCC(N)=O)C(=O)N[C@@H](CCCCN)C(N)=O)C(C)C)[C@@H](C)CC [AT483] (H-EGAFISDYAAAMDKIK(C16 diacid)QQDFVAWLLAQK-NH2; N-terminus assumed)	–	–	–
–	–	CC[C@H](C)[C@H](NC(=O)[C@H](CO)NC(=O)[C@H](Cc1ccc(O)cc1)NC(=O)[C@H](CC(=O)O)NC(=O)[C@H](CO)NC(=O)[C@@H](NC(=O)[C@H](Cc1ccccc1)NC(=O)[C@@H](NC(=O)CNC(=O)CN)[C@@H](C)O)[C@@H](C)CC)C(=O)N[C@@H](C)C(=O)N[C@@H](CCSC)C(=O)N[C@@H](CC(=O)O)C(=O)N[C@@H](CCCNC(=N)N)C(=O)N[C@H](C(=O)N[C@@H](CCCCNC(=O)CCCCCCCCCCCCCCC(=O)O)C(=O)N[C@@H](CCC(N)=O)C(=O)N[C@@H](CCC(N)=O)C(=O)N[C@@H](CC(=O)O)C(=O)N[C@@H](Cc1ccccc1)C(=O)N[C@H](C(=O)N[C@@H](CC(N)=O)C(=O)N[C@@H](Cc1c[nH]c2ccccc12)C(=O)N[C@@H](CC(C)C)C(=O)N[C@@H](CC(C)C)C(=O)N[C@@H](C)C(=O)N[C@@H](CCC(N)=O)C(=O)N[C@@H](CCCNC(=N)N)C(=O)O)C(C)C)[C@@H](C)CC [AT257] (H-GGTFISDYSIAMDRIK(C16 diacid)QQDFVNWLLAQR-OH; N-terminus assumed)	5%	4%	–
–	–	CC[C@H](C)[C@H](NC(=O)[C@H](CO)NC(=O)[C@H](Cc1ccc(O)cc1)NC(=O)[C@H](CC(=O)O)NC(=O)[C@H](CO)NC(=O)[C@@H](NC(=O)[C@H](Cc1ccccc1)NC(=O)[C@@H](NC(=O)CNC(=O)[C@@H]1CCCN1)[C@@H](C)O)[C@@H](C)CC)C(=O)N[C@@H](C)C(=O)N[C@@H](CCSC)C(=O)N[C@@H](CC(=O)O)C(=O)N[C@@H](CCCNC(=N)N)C(=O)N[C@H](C(=O)N[C@@H](CCCCNC(=O)COCCOCCNC(=O)CC[C@H](NC(=O)CCCCCCCCCCCCCCC(=O)O)C(=O)O)C(=O)N[C@@H](CCC(N)=O)C(=O)N[C@@H](CCC(N)=O)C(=O)N[C@@H](CC(=O)O)C(=O)N[C@@H](Cc1ccccc1)C(=O)N[C@H](C(=O)N[C@@H](CC(N)=O)C(=O)N[C@@H](Cc1c[nH]c2ccccc12)C(=O)N[C@@H](CC(C)C)C(=O)N[C@@H](CC(C)C)C(=O)N[C@@H](C)C(=O)N[C@@H](CCC(N)=O)C(=O)N[C@@H](CCCNC(=N)N)C(=O)O)C(C)C)[C@@H](C)CC [AT273] (HELM PEPTIDE1{P.G.T.F.I.S.D.Y.S.I.A.M.D.R.I.K.Q.Q.D.F.V.N.W.L.L.A.Q.R}|PEPTIDE2{[O=C(O)CCCCCCCCCCCCCCC(=O)[*:2]].[gGlu].[O=C(COCCOCCN[*:1])[*:2]]}$PEPTIDE1,PEPTIDE2,16:R3-3:R2$$$V2.0; N-terminus assumed)	0%	35%	–
